The results in this text go back to ChEMBL document CHEMBL1201862, “PubChem BioAssay data set” (2004).

Experiment [1] in a line: Counterscreen for antagonists of the orexin 1 receptor (OX1R; HCRTR1): Fluorescence-based cell-based high throughput dose response assay to identify antagonists of the parental CHO cell line. [Related pubchem assays (depositor defined):AID434989, AID435008, AID463079, AID485270, AID492963, AID492964, AID492965, AID493232, AID504699, AID504701]. It is filed as functional. Background: Counterscreens check selectivity or assay interference.

Experiment [2] in a line: general mammalian cell viability loss – inhibitor set, cherry-pick, set 2, cytotoxicity control for miR-122 modulator project, dose response (AID 720697). Format: functional, cell-based.
The next experiment addresses T1, Protein RecA (Mycobacterium tuberculosis, UniProt P9WHJ3).
T1 sequence (P9WHJ3 whole entry): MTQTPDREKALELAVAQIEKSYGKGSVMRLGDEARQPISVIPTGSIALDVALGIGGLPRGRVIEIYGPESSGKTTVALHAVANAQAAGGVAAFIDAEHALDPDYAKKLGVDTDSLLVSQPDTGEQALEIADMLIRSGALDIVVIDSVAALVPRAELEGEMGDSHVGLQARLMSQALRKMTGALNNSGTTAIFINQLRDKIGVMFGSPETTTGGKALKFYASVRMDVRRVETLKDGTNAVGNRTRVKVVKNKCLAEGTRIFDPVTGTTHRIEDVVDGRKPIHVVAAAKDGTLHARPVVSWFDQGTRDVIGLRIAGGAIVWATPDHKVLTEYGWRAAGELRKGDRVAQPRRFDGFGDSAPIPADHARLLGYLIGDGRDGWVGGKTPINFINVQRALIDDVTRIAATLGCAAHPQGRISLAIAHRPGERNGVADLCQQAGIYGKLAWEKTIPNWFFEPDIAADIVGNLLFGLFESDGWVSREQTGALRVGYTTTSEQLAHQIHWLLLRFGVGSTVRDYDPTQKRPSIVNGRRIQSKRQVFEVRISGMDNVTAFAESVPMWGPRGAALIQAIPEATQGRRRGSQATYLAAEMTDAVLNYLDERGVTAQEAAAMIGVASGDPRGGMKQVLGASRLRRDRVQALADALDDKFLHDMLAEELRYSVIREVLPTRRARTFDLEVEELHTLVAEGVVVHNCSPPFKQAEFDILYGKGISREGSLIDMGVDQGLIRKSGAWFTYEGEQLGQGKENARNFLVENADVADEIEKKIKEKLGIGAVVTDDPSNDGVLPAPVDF
As to the kind of experiment: Fluorescence Cell-Free Homogeneous Dose Retest to Identify Inhibitors of RecA-Intein Splicing Activity. [Related pubchem assays (depositor defined):AID2097, AID2223, AID489010, AID492950]. It is filed as functional.

Experiment [3] can be described thus: general mammalian cell viability loss – activator set, cherry-pick, cytotoxicity control for miR-122 modulator project, dose response (AID 720690).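 Also: HEK293T human cells scored for general mammalian cytotoxicity.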 Format: functional, cell-based.
The target in experiment [4] is Sphingosine 1-phosphate receptor 4 (Homo sapiens, UniProt O95977). Description: Fluorescence dose response cell-based high throughput screening assay for antagonists of the Sphingosine 1-Phosphate Receptor 4 (S1P4). [Related pubchem assays: 1524 (Confirmation in triplicates.), 1510 (Primary screen.)]. Format: functional.
For the next experiment, the target named is Orexin receptor type 2 (Homo sapiens, UniProt O43614). Description: Counterscreen assay for antagonists of the orexin 1 receptor (OX1R; HCRTR1): Fluorescence-based cell-based dose response assay for antagonists of the orexin 2 receptor (OX2R; HCRTR2), run by assay provider. It is filed as functional.
Experiment [5] deals with Sphingosine 1-phosphate receptor 2 (Homo sapiens, UniProt O95136). Description: Dose Response Cell Based Assay for Antagonists of the S1P2 Receptor. [Related pubchem assays: 856, 736 ]. It is filed as functional.
Experiment [6] deals with Intestinal-type alkaline phosphatase (Mus musculus, UniProt P24822). As to the kind of experiment: PubChem AID 488785. Format: functional.
The target of experiment [7] is T2, Zinc finger protein mex-5 (Caenorhabditis elegans, UniProt Q9XUB2).
T2 sequence (Q9XUB2 whole entry): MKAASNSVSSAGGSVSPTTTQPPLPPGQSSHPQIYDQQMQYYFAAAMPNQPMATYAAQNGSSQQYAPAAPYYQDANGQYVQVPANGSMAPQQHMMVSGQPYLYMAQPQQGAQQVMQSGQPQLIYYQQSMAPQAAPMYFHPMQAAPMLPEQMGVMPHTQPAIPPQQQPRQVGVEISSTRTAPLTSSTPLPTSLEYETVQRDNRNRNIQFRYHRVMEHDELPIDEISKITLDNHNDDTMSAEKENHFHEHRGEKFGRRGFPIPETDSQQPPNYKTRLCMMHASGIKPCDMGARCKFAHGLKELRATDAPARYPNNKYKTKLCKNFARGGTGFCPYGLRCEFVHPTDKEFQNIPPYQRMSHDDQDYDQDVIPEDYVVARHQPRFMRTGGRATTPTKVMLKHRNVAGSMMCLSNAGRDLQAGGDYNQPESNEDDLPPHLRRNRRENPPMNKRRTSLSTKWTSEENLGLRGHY
As to the kind of experiment: potency of MEX-5 RNA-binding blockers – biochemical, C. elegans, fluorescence polarization, dose response (AID 1960). For orientation: Polarisation of emitted light reports the rotation of a fluorescent probe.

In experiment [8] the target is Photoreceptor-specific nuclear receptor (Homo sapiens, UniProt Q9Y5X4). It is filed as functional.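 Also: potency for compounds that break the NR2E3 corepressor complex and count as activators.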
The target of a further experiment is ORF 73 (Human herpesvirus 8, UniProt O40947). As to the kind of experiment: KSHV LANA DNA-binding disruption – biochemical, fluorescence polarization, cherry-picked samples, dose response (AID 504725).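 Also: fluorescence polarization of a labeled DNA duplex reporting LANA DNA binding; potency is for inhibitors that block LANA binding to the DNA.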 Further details: species or system Human gammaherpesvirus 8.
Experiment [9] concerns the target Peroxisome proliferator-activated receptor gamma/Nuclear receptor corepressor 2 (Homo sapiens, UniProt P37231+Q9Y618). It is filed as functional.
In a further experiment the target is SUMO-activating enzyme (Homo sapiens, UniProt Q9UBT2). As to the kind of experiment: blockers of UBC9-mediated SUMO conjugation – biochemical, AlphaScreen, SUMOylation inhibitor project, confirmation (AID 2018). Format: functional. (In general: Bead proximity is the source of the signal in Alpha formats.)
Experiment [10] has as its target Platelet-derived growth factor receptor beta (Homo sapiens, UniProt P09619). Format: functional.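 Also: value comes from a kinome panel, with PDGFRB tested as one panel member.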
The target of experiment [11] is Ribosomal protein S6 kinase alpha-3 (Homo sapiens, UniProt P51812). It is filed as functional.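 Also: measured within a kinome-wide profiling panel.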
Experiment [12] in a line: Trypanosoma cruzi growth suppression in host cells – NIH3T3 host cells, beta-gal luminescence, confirmation (AID 2044).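 Also: intracellular parasites grown in NIH/3T3 mouse fibroblasts as host cells; luminescent beta-galactosidase reporter signal from transgenic T. cruzi replicating inside host cells; inhibitors lower the luminescence signal.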 It is filed as functional, cell-based.
A further experiment is described as follows: cells. Format: functional, cell-based.
The nature of experiment [13]: blockers of HIV-1 ZM109 envelope-driven cell-cell fusion – HeLa effector, CEM target cells, luciferase, cherry-pick, dose response (AID 652058).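 Also: luciferase signal from HIV-1 Env mediated cell-cell fusion of effector and target cells.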 Format: functional, cell-based.
A short description of experiment [14]: viability loss in CEM21 cells – cell-based, CellTiter-Glo luminescence, cherry-picked, cytotoxicity control for viral fusion inhibitor project, dose response (AID 652042).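 Also: potency for signal decrease meaning cytotoxicity.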 Format: functional.
The nature of experiment [15]: HIV-1 AD8 envelope cell-cell fusion blockers – cherry-pick, dose response (AID 652062).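 Also: luciferase signal from cell-cell fusion driven by HIV-1 clade B AD8 Env; potency is for inhibitors of fusion seen as a drop in luminescence.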 Format: functional, cell-based.
Experiment [16] in a line: Counterscreen for AddAB inhibitors: absorbance-based bacterial cell-based high throughput dose response assay for inhibitors of bacterial viability. [Related pubchem assays (depositor defined):AID435030, AID449728, AID449731, AID488942, AID488955, AID488956]. It is filed as functional.
The nature of experiment [17]: NIH3T3 cell viability loss – ATP luminescence, mouse fibroblasts, counter-screen, dose response (AID 2010).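 Also: cells exposed to compound for about 90 hours before reading.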 It is filed as functional, cell-based.

Calls of active or inactive are those of the source.

The term IC50 denotes the concentration at which inhibition is half-maximal. The term AC50 denotes the midpoint of the concentration-response curve, whichever way the signal moves. What is called EC50 is the concentration that produces a half-maximal response. The term Ki denotes the equilibrium dissociation constant of an inhibitor or competing ligand from its target.

Chain of Platelet-derived growth factor receptor beta (P09619 whole entry): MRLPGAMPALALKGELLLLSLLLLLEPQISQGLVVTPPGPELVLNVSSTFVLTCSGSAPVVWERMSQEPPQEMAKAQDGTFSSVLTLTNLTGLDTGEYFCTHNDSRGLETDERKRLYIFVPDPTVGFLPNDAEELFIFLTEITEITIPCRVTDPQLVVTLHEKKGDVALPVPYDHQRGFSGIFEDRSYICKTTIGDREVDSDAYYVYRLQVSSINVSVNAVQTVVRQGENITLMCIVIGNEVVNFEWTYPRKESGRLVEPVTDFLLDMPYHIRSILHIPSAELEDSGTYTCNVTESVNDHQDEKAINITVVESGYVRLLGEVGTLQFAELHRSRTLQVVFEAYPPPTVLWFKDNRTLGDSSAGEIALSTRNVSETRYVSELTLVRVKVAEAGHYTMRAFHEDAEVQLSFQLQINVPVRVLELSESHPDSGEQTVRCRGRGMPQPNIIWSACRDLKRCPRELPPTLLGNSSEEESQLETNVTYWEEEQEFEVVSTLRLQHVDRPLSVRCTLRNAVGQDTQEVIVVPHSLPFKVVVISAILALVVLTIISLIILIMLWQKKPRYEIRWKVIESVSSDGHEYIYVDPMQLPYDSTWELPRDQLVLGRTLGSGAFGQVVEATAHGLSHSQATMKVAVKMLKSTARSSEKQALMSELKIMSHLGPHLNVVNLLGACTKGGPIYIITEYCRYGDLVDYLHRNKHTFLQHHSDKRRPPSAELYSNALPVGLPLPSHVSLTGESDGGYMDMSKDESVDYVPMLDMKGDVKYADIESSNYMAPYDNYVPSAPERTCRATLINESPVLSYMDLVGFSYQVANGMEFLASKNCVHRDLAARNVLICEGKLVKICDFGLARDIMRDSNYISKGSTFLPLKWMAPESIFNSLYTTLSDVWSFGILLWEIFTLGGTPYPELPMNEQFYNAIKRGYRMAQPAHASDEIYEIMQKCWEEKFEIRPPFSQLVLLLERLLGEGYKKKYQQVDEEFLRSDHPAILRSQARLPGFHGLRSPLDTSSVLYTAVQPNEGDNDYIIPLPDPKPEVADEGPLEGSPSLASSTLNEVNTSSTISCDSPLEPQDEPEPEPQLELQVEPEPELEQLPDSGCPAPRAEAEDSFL
Chain of Ribosomal protein S6 kinase alpha-3 (P51812 whole entry): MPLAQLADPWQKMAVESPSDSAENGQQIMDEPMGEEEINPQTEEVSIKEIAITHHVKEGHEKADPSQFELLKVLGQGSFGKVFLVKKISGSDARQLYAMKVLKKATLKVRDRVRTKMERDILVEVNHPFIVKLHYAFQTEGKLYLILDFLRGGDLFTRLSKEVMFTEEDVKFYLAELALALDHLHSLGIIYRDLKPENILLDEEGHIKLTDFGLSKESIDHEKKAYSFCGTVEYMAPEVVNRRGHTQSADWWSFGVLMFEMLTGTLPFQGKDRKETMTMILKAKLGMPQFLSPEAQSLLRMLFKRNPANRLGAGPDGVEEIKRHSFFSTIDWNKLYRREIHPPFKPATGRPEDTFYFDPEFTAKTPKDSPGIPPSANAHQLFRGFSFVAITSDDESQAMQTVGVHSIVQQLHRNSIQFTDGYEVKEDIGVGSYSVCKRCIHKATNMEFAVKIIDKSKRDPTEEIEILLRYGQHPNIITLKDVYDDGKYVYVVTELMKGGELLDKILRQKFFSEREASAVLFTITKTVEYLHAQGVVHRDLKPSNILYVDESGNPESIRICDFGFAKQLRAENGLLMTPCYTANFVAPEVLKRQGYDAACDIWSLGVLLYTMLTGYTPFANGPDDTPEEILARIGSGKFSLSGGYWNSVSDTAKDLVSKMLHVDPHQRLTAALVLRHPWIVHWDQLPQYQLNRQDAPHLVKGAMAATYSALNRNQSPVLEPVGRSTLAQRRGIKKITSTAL
Chain of SUMO-activating enzyme (Q9UBE0 whole entry): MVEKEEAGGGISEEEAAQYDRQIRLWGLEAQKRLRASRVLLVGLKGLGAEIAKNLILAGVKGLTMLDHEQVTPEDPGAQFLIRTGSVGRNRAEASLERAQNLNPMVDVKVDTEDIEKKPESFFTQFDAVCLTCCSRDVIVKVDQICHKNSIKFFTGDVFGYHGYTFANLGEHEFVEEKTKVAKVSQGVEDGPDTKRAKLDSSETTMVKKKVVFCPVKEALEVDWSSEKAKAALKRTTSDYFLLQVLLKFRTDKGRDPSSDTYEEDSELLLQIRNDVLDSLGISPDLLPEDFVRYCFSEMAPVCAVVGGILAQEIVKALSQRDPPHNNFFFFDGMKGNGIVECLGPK
Chain of SUMO-activating enzyme (Q9UBT2 whole entry): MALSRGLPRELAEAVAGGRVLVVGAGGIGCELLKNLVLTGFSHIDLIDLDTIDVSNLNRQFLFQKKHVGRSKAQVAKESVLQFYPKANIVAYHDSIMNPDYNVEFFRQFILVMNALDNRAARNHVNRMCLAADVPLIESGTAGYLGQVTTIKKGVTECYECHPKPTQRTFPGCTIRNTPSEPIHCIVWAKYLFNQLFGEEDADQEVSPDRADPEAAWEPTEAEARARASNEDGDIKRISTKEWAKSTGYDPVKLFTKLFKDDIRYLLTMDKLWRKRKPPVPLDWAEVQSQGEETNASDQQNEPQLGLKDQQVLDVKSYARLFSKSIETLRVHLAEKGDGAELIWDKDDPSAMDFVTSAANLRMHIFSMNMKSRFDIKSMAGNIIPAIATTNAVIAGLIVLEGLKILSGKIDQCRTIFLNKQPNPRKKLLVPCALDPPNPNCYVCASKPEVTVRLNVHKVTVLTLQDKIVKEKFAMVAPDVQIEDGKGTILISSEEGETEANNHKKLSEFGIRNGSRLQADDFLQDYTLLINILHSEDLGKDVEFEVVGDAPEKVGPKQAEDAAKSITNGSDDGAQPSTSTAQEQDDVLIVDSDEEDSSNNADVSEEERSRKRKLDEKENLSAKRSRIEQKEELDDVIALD
Chain of Sphingosine 1-phosphate receptor 2 (O95136 whole entry): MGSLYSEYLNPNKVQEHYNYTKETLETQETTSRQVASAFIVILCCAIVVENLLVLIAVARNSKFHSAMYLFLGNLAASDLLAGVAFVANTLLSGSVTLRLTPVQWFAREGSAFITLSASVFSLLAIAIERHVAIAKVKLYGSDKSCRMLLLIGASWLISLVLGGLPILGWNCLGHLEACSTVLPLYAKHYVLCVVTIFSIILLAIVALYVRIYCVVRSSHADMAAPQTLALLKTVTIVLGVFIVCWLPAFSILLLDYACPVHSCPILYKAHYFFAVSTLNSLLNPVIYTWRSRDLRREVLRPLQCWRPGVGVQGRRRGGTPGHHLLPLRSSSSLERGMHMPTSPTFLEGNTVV
Chain of Sphingosine 1-phosphate receptor 4 (O95977 whole entry): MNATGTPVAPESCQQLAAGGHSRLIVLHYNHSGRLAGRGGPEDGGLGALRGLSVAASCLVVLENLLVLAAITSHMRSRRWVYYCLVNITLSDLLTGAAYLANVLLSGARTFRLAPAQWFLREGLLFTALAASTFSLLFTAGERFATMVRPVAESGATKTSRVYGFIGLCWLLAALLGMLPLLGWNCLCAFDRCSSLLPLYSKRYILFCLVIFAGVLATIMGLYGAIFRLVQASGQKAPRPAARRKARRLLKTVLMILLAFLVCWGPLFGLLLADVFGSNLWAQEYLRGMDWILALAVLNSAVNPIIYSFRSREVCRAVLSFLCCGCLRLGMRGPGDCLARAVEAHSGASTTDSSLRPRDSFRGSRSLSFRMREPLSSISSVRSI
Chain of Orexin receptor type 2 (O43614 whole entry): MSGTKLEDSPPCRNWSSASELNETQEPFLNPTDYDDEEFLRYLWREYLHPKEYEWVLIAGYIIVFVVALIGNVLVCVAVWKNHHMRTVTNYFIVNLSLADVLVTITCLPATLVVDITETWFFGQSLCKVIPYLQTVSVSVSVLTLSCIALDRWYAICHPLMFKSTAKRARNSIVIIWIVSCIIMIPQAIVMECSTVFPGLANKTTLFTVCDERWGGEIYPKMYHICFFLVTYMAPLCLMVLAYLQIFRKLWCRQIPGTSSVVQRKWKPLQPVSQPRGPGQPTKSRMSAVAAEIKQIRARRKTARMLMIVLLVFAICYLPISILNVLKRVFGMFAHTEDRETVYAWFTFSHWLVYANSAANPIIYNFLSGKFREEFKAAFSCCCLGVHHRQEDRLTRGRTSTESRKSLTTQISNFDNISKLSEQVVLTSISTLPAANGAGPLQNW
Chain of Photoreceptor-specific nuclear receptor (Q9Y5X4 whole entry): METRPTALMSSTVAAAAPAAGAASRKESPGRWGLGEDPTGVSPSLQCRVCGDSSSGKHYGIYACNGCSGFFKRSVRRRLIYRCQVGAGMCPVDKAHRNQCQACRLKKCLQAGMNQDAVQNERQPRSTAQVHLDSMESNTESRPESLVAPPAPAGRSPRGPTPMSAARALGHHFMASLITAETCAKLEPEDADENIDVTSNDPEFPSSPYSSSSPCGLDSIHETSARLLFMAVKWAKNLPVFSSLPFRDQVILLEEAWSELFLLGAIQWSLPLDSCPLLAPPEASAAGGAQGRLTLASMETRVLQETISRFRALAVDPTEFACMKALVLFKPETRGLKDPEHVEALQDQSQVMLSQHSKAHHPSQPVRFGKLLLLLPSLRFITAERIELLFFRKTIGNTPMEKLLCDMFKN
Chain of Intestinal-type alkaline phosphatase (P24822 whole entry): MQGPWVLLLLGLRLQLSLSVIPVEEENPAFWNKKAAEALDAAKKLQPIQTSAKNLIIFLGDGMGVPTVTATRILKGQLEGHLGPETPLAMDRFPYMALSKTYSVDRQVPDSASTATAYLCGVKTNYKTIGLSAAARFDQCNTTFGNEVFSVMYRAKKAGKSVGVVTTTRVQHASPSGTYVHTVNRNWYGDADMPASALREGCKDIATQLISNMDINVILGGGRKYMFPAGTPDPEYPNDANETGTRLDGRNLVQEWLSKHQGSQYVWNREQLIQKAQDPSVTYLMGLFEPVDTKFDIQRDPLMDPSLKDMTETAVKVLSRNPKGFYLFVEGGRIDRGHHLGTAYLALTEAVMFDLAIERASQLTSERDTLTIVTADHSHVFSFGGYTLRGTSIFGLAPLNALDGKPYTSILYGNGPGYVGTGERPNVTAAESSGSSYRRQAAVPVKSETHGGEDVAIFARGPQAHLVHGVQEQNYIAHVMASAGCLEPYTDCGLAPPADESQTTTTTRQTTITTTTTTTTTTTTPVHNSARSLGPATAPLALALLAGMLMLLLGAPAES

In the case of `Cc1ccc(C(=O)OCn2ncc(Cl)c(Cl)c2=O)cc1`, the IC50 was > 49.7 µM (inactive) in [1], 1.27 µM (active) in experiment [4], > 88.8 µM (inactive) on Orexin receptor type 2 and 2.65 µM (active) in experiment [5]. Besides, the AC50 in experiment [2] is 4.05 µM (active); in experiment [3] it was 4.47 µM (active). In addition, the EC50 at Protein RecA was 0.924 µM (active).
Consider `O=C(O)CC(C(=O)O)N1C(=O)/C(=C/C=C/c2ccco2)SC1=S` (configuration not stated), for which the IC50 in [6] was 30.4 µM (active); in experiment [8] it was > 39.8 µM (not active); in experiment [9], > 39.8 µM (not active); at SUMO-activating enzyme, 1.12 µM (active). Also, the EC50 in experiment [7] was 23.3 µM (active). For the same compound, on ORF 73, the AC50 is 28.9 µM (active).
As to `O=C(Nc1cccc(C2Nc3ccc4ccccc4c3C3C=CCC32)c1)c1ccc(F)cc1` (configuration not stated), the Ki in experiment [10] was 1.58 µM (active); in experiment [11], > 3.98 µM (inactive).
With `CCCC(=O)NC(c1cccs1)c1cc(Cl)c2cccnc2c1O` (configuration not stated), the figures for the EC50 (in experiment [12]; in “cells”; in experiment [17]) were 1.06 µM (active), > 350 µM (not active) and 2.61 µM (active), respectively. Also, the AC50 was 15 µM (active) in experiment [13], 25.1 µM (active) in [14] and 6.73 µM (active) in [15]. The IC50 in experiment [16] was > 119 µM (inactive).
